Assay results from patent publication US10954269B2, “Anti-inflammatory tripeptides” (Dr. August Wolff Gmbh & Co. KG Arzneimittel, priority 2013, dated 2021).

Columns and labels:
[1] = system: human keratinocyte cell line (HaCaT); assay: Cytokine secretion on protein level in activated human keratinocyte cell line HaCaT (13-plex FACS / Luminex, supernatant); type: cell-based; conditions: substance 10^−9M
How it was run: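 Cytokine protein in supernatant is read by multiplex FACS or Luminex. Tripeptide-treated HaCaT cells or blood-derived human T-cells are stimulated beforehand with PMA/Ionomycin or IFN-γ. The most relevant analytes are IL-1, IL-2, IL-6, IL-12p70, IL-17, IFN-γ and TNF-α, sampled 48 h and 72 h after stimulation.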

[2] = system: primary murine T-cells; assay: Cytokine secretion on protein level in activated primary murine T-cells (13-plex FACS / Luminex, supernatant); type: cell-based, C57BL/6 mice; conditions: for IL-1 cytokine concentration / IL-2 cytokine concentration / IL-4 cytokine concentration / IL-5 cytokine concentration / IL-6 cytokine concentration / IL-10 cytokine concentration / IL-13 cytokine concentration / IL-17 cytokine concentration / IL-21 cytokine concentration / IL-22 cytokine concentration / IL-27 cytokine concentration / TNF-α cytokine concentration / IFN-γ cytokine concentration: substance 10^−9M
How it was run: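 T-cells from secondary lymphatic organs of naïve C57BL/6 mice, stimulated with PMA/Ionomycin or IFN-γ; supernatant cytokines measured by 13-plex FACS 48 h and 72 h after stimulation. In another run, PMA/Ionomycin-stimulated cells received compounds at 10^−7, 10^−9 and 10^−11 M, with IFN-γ, IL-17 and IL-10 measured by Luminex.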

[3] = system: primary human T-cells; assay: Cytokine secretion on protein level in activated primary human T-cells (13-plex FACS / Luminex, supernatant); type: cell-based; conditions: for IL-1 cytokine concentration / IL-2 cytokine concentration / IL-4 cytokine concentration / IL-5 cytokine concentration / IL-6 cytokine concentration / IL-9 cytokine concentration / IL-10 cytokine concentration / IL-12p70 cytokine concentration / IL-13 cytokine concentration / IL-17 cytokine concentration / IL-22 cytokine concentration / TNF-α cytokine concentration / INF-α cytokine concentration: substance 10^−9M
How it was run: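 Stimulus: PMA/Ionomycin or IFN-γ, 48 h; cells: HaCaT or human peripheral-blood T-cells; tripeptide treatment; readout: supernatant cytokines via 13-plex FACS or Luminex, 48–72 h post-stimulation.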

[4] = HaCaT stimulated with PMA/Ionomycin
[5] = primary murine T-cells stimulated with IFN-γ
[6] = primary murine T-cells stimulated with PBS
[7] = primary murine T-cells stimulated with PMA/Ionomycin
[8] = primary human T-cells stimulated with IFN-γ
[9] = primary human T-cells stimulated with PBS
[10] = primary human T-cells stimulated with PMA/Ionomycin

N^α,N^α-dimethyl-(L)-Lys-(D)-Pro-N^α-methyl-(L)-Val-OH [Example 5]
IL-1 cytokine concentration ([1]; HaCaT stimulated with IFN-γ): 0 pg/mL
IL-2 cytokine concentration ([1]; HaCaT stimulated with IFN-γ): 0 pg/mL
IL-4 cytokine concentration ([1]; HaCaT stimulated with IFN-γ): 0 pg/mL
IL-5 cytokine concentration ([1]; HaCaT stimulated with IFN-γ): 0 pg/mL
IL-6 cytokine concentration ([1]; HaCaT stimulated with IFN-γ): 415.82 pg/mL
IL-9 cytokine concentration ([1]; HaCaT stimulated with IFN-γ): 0 pg/mL
IL-10 cytokine concentration ([1]; HaCaT stimulated with IFN-γ): 41.86 pg/mL
IL-12p70 cytokine concentration ([1]; HaCaT stimulated with IFN-γ): 0 pg/mL
IL-13 cytokine concentration ([1]; HaCaT stimulated with IFN-γ): 1974.31 pg/mL
IL-17 cytokine concentration ([1]; HaCaT stimulated with IFN-γ): 0 pg/mL
IL-22 cytokine concentration ([1]; HaCaT stimulated with IFN-γ): 0 pg/mL
TNF-α cytokine concentration ([1]; HaCaT stimulated with IFN-γ): 0 pg/mL
IFN-γ cytokine concentration ([1]; HaCaT stimulated with PBS): 0 pg/mL
IL-1 cytokine concentration ([1]; HaCaT stimulated with PBS): 0 pg/mL
IL-2 cytokine concentration ([1]; HaCaT stimulated with PBS): 149.51 pg/mL
IL-4 cytokine concentration ([1]; HaCaT stimulated with PBS): 152.8 pg/mL
IL-5 cytokine concentration ([1]; HaCaT stimulated with PBS): 133.49 pg/mL
IL-6 cytokine concentration ([1]; HaCaT stimulated with PBS): 218.63 pg/mL
IL-9 cytokine concentration ([1]; HaCaT stimulated with PBS): 28.51 pg/mL
IL-10 cytokine concentration ([1]; HaCaT stimulated with PBS): 89.86 pg/mL
IL-12p70 cytokine concentration ([1]; HaCaT stimulated with PBS): 0 pg/mL
IL-13 cytokine concentration ([1]; HaCaT stimulated with PBS): 0 pg/mL
IL-17 cytokine concentration ([1]; HaCaT stimulated with PBS): 18.83 pg/mL
IL-22 cytokine concentration ([1]; HaCaT stimulated with PBS): 0 pg/mL
TNF-α cytokine concentration ([1]; HaCaT stimulated with PBS): 0 pg/mL
IFN-γ cytokine concentration [1, 4]: 199.65 pg/mL
IL-1 cytokine concentration [1, 4]: 104.98 pg/mL
IL-2 cytokine concentration [1, 4]: 145.65 pg/mL
IL-4 cytokine concentration [1, 4]: 168.7 pg/mL
IL-5 cytokine concentration [1, 4]: 1.93 pg/mL
IL-6 cytokine concentration [1, 4]: 379.04 pg/mL
IL-9 cytokine concentration [1, 4]: 0 pg/mL
IL-10 cytokine concentration [1, 4]: 59.49 pg/mL
IL-12p70 cytokine concentration [1, 4]: 0 pg/mL
IL-13 cytokine concentration [1, 4]: 0 pg/mL
IL-17 cytokine concentration [1, 4]: 95.44 pg/mL
IL-22 cytokine concentration [1, 4]: 0 pg/mL
TNF-α cytokine concentration [1, 4]: 27.45 pg/mL
secretion / expression of pro-inflammatory cytokines (supernatant) ([2]; activated primary murine T-cells): immunomodulatory effects were seen
IL-1 cytokine concentration [2, 5]: 49.65 pg/mL
IL-2 cytokine concentration [2, 5]: 89.76 pg/mL
IL-4 cytokine concentration [2, 5]: 47.55 pg/mL
IL-5 cytokine concentration [2, 5]: 263.27 pg/mL
IL-6 cytokine concentration [2, 5]: 127.92 pg/mL
IL-10 cytokine concentration [2, 5]: 1359.92 pg/mL
IL-13 cytokine concentration [2, 5]: 0 pg/mL
IL-17 cytokine concentration [2, 5]: 97.22 pg/mL
IL-21 cytokine concentration [2, 5]: 0 pg/mL
IL-22 cytokine concentration [2, 5]: 32.03 pg/mL
IL-27 cytokine concentration [2, 5]: 20.07 pg/mL
TNF-α cytokine concentration [2, 5]: 24.23 pg/mL
IFN-γ cytokine concentration [2, 6]: 232.8 pg/mL
IL-1 cytokine concentration [2, 6]: 56.42 pg/mL
IL-2 cytokine concentration [2, 6]: 151.25 pg/mL
IL-4 cytokine concentration [2, 6]: 53.6 pg/mL
IL-5 cytokine concentration [2, 6]: 209.32 pg/mL
IL-6 cytokine concentration [2, 6]: 117.95 pg/mL
IL-10 cytokine concentration [2, 6]: 1311.94 pg/mL
IL-13 cytokine concentration [2, 6]: 0 pg/mL
IL-17 cytokine concentration [2, 6]: 0 pg/mL
IL-21 cytokine concentration [2, 6]: 13.71 pg/mL
IL-22 cytokine concentration [2, 6]: 27.66 pg/mL
IL-27 cytokine concentration [2, 6]: 81.64 pg/mL
TNF-α cytokine concentration [2, 6]: 32.89 pg/mL
IFN-γ cytokine concentration [2, 7]: 2075.42 pg/mL
IL-1 cytokine concentration [2, 7]: 178.79 pg/mL
IL-2 cytokine concentration [2, 7]: 112.62 pg/mL
IL-4 cytokine concentration [2, 7]: 81.4 pg/mL
IL-5 cytokine concentration [2, 7]: 246.42 pg/mL
IL-6 cytokine concentration [2, 7]: 189.2 pg/mL
IL-10 cytokine concentration [2, 7]: 1233.45 pg/mL
IL-13 cytokine concentration [2, 7]: 0 pg/mL
IL-17 cytokine concentration [2, 7]: 0 pg/mL
IL-21 cytokine concentration [2, 7]: 67.28 pg/mL
IL-22 cytokine concentration [2, 7]: 29.38 pg/mL
IL-27 cytokine concentration [2, 7]: 51.58 pg/mL
TNF-α cytokine concentration [2, 7]: 29.15 pg/mL
secretion / expression of pro-inflammatory cytokines (supernatant) ([3]; activated primary human T-cells): immunomodulatory effects were seen
IL-1 cytokine concentration [3, 8]: 0 pg/mL
IL-2 cytokine concentration [3, 8]: 0 pg/mL
IL-4 cytokine concentration [3, 8]: 78.18 pg/mL
IL-5 cytokine concentration [3, 8]: 0 pg/mL
IL-6 cytokine concentration [3, 8]: 42.52 pg/mL
IL-9 cytokine concentration [3, 8]: 5.56 pg/mL
IL-10 cytokine concentration [3, 8]: 61 pg/mL
IL-12p70 cytokine concentration [3, 8]: 0 pg/mL
IL-13 cytokine concentration [3, 8]: 29.25 pg/mL
IL-17 cytokine concentration [3, 8]: 26.44 pg/mL
IL-22 cytokine concentration [3, 8]: 0 pg/mL
TNF-α cytokine concentration [3, 8]: 12.52 pg/mL
IL-1 cytokine concentration [3, 9]: 0 pg/mL
IL-2 cytokine concentration [3, 9]: 0 pg/mL
IL-4 cytokine concentration [3, 9]: 0 pg/mL
IL-5 cytokine concentration [3, 9]: 0 pg/mL
IL-6 cytokine concentration [3, 9]: 94.11 pg/mL
IL-9 cytokine concentration [3, 9]: 6.74 pg/mL
IL-10 cytokine concentration [3, 9]: 119.04 pg/mL
IL-12p70 cytokine concentration [3, 9]: 0 pg/mL
IL-13 cytokine concentration [3, 9]: 35.75 pg/mL
IL-17 cytokine concentration [3, 9]: 0 pg/mL
IL-22 cytokine concentration [3, 9]: 0 pg/mL
INF-α cytokine concentration [3, 9]: 0 pg/mL
TNF-α cytokine concentration [3, 9]: 0 pg/mL
IL-1 cytokine concentration [3, 10]: 748 pg/mL
IL-2 cytokine concentration [3, 10]: 4369.09 pg/mL
IL-4 cytokine concentration [3, 10]: 92.43 pg/mL
IL-5 cytokine concentration [3, 10]: 392.66 pg/mL
IL-6 cytokine concentration [3, 10]: 1051.51 pg/mL
IL-9 cytokine concentration [3, 10]: 193.58 pg/mL
IL-10 cytokine concentration [3, 10]: 789.38 pg/mL
IL-12p70 cytokine concentration [3, 10]: 0 pg/mL
IL-13 cytokine concentration [3, 10]: 912.49 pg/mL
IL-17 cytokine concentration [3, 10]: 1164.75 pg/mL
IL-22 cytokine concentration [3, 10]: 0 pg/mL
INF-α cytokine concentration [3, 10]: 8770.62 pg/mL
TNF-α cytokine concentration [3, 10]: 2187.46 pg/mL
